According to patent EP1860442A2, “Neurosteroids as markers for Alzheimer's disease” (Georgetown University, priority 2000, dated 2001):

Legend:
MGM-1 cells [1] = assay: β-Amyloid regulation of the alternative pathway: D synthesis; assay type: cell-based, human; settings: 50 mM Aβ versus control, p < 0.01
Procedure: Alternative Pathway: To determine the amount ofD synthesized by the alternative pathway cells were treated as previously described (15). In brief, cells were washed and oligodendrocytes and astrocytes were incubated with increasing concentrations of FeSO4 in serum free media, with and without SU 10603 (10 mM); neurons were incubated in serum free media containing 5 mM P plus FeSO4, with and without 10 mM SU 10603. After two hours, cells and media were homogenized and extracted as described above. Extracts were run on C18 TLC plates (Whatman, Clifton, NJ) with a mobile phase of 95% methanol (v/v); radiolabeled standards for P, progesterone, and D were run on each plate, and appropriate steroid fractions were collected for each sample. TLC fractions were extracted with 2 ml diethyl ether (Fluka, New York) and evaporated. TLC extracts were assayed by specific radioimmunoassay (RIA). […]
RIA using antibodies specific for each steroid (ICN Pharmaceuticals, Costa Mesa, CA Mesa) was used to measure P, progesterone and D levels. The data were analyzed using the IBM-PC RIA Data Reduction Program (version 4.1) from Jaffe and Associates (Silver Spring, MD). Levels of β-amyloid species in AD and control brain samples were analyzed using 4G8 (Senetex PLC, Napa, CA), a monoclonal antibody to β-amyloid peptide that recognizes amino acids 17-24. […]

MGM-1 cells [2] = assay: β-Amyloid regulation of the alternative pathway: ROS (2,7-DCF fluorescence); assay type: cell-based, human; settings: 50 mM Aβ versus control, p < 0.01
Procedure: β-Amyloid Regulation of the Alternative Pathway: MGM-1 cells were plated on 96 well (~5,000 cells/well, for ROS measurements) or 24 well (~15,000 cells/well, for D measurements) plates (Coming Costar, Acton, MA). At the same time, 1mg Ab (Ab (1-42), AnaSpec Inc., San Jose, CA) was dissolved in 0.5 ml serum-free media and incubated at 4C for aggregation. 24 hours later, cells were incubated in DMEM with 10% fetal bovine serum and […] or […] and 10 mM Vitamin E (Sigma, St. Louis, MO). Control samples were incubated in DMEM with 10% FBS. Cells were incubated at 37C and 6% CO2 for at least 12 hours and processed for ROS generation (see below) or D synthesis as described above for the alternative experiments.
Treatment media was removed and the cells were washed with PBS. The fluorescent probe 2,7- dichlorofluorescin diacetate (2,7-DCF, Molecular Probes, Inc., Eugene, OR) was used to measure levels of oxidative stress (48). Cells were incubated with […] 2,7-DCF, fluorescence was measured at 485nm/535nm using the Victor^2 Multilabel Counter (EG&G Wallac, Gaithersburg, MD) and values of cellular fluorescence were obtained.

“Aβ: β-amyloid peptide Ab (1-42), AnaSpec Inc., aggregated; a component of Alzheimer's disease plaques” was tested, and the D levels (MGM-1 cells [1]) was “increased D levels significantly over control” and the “2,7-DCF fluorescence (ROS)” value (MGM-1 cells [2]) was “significant increase”.
